Source: article PMC5699210 (Bioorganic & medicinal chemistry letters, 2011)
Entries after “also recorded” stand apart in the source; their conditions may differ.

System: rats with inflammation of the dura
Assay: Rat model of migraine pain
Type: in vivo
Conditions: oral 30 mg/kg

In the case of `CN1CCC[C@@H]1CCn1ccc2ccc(NC(=N)c3cccs3)cc21.Cl.Cl` [(R)-8], the “tactile hyperesthesia (allodynia) of the hindpaw” value (15 min prior to the inflammatory soup, 30 mg/kg) is reported as “attenuated the development of allodynia between 2 and 6 h post-dose; also recorded: attenuates the tactile hyperesthesia (allodynia); also recorded: reduce tactile hyperesthesia (allodynia)” and the “time of maximum effect on allodynia” value (post-dose) is reported as 4 h.
